Source: patent publication US20180117171A1, “IMMUNOCONJUGATES FOR PROGRAMMING OR REPROGRAMMING OF CELLS” (President and Fellows of Harvard College, priority 2015, published 2018)
Where no end group is shown, it is not given here.

Experiments:
[1] = system: primary bone marrow dendritic cells (BMDC); experiment: dexamethasone effect on surface markers of bone marrow dendritic cells (FACS); format: cell-based, mouse
Description: Flow cytometry was conducted according to standard protocols. Cells were harvested, washed, and resuspended to a final cell concentration of 1-5 million cells/ml in ice cold phosphate buffered saline (PBS) with 10% fetal bovine serum (FBS) and 1% sodium azide. Anti-mouse antibodies including anti-CD11c, MHC II, CD80, CD86, and OVA 257-264 bound to H-2Kb were then aliquotted according to the manufacturer's recommended dilutions (Ebioscience). During staining, cells were incubated for 20 minutes at room temperature and then 20 minutes on ice. The cells were then washed and kept on ice until analysis. Some samples were fixed in 1% paraformaldehyde (PFA) for later flow cytometric studies. Flow cytometry was conducted on the BD LSR II or the BD Fortessa. Analysis was done using Flowjo (Tree Star Inc.).
The listed concentrations of dexamethasone were added on day 6 and day 8. For the lipopolysaccharide (LPS) condition, LPS was added to a concentration of 50 ng/ml on day 9. […] “LPS” samples had LPS, but no dexamethasone.
For these studies, dexamethasone was added on day 6 and day 8. LPS was added to a concentration of 50 ng/ml on day 9. […] “LPS” samples had LPS, but no dexamethasone.

[2] = system: BMDC; experiment: IL-12p70 elaboration from BMDC (ELISA); settings: 100 nM, LPS 50 ng/ml
[3] = system: BMDC; experiment: MHC II and co-stimulatory molecule surface presentation on BMDC after LPS; format: cell-based, mouse; settings: 100 nM compound, next day 50 ng/ml LPS; mean ± SD
Description: Day 9 BMDC were harvested from 100 mm diameter plates and seeded into 6 wells of a tissue culture plate in R10 media containing 100 nM dexamethasone or dexamethasone-[…] […] The BD LSR Fortessa was used to analyze the cells. Histograms were created using Flowjo (Tree Star Inc.) and statistical analysis was done using InStat (GraphPad Software).

[4] = system: Jaws II cells; experiment: transwell migration of Jaws II DC; format: cell-based; settings: 10^−6 or 10^−7 M dexamethasone
[5] = system: CD4+ T cells from OT-II mice; experiment: CD4 T cell proliferation with peptide-MPS stimulated BMDCs; format: cell-based; settings: compared to peptide stimulation only
Text: FIG. 54A-C are a set of graphs showing the effect of peptide-MPS conjugates on CD4 T cell proliferation, as evaluated in vitro. BMDCs were stimulated with […] (peptide) (SEQ ID NO: 19), […] (SEQ ID NO: 19) conjugated to MPS through SMCC (SMCC), and […] BMDCs were then washed thoroughly and co-cultured with CD4^+ T cells from OT-II mice. OT-II mice are enriched for CD4^+ T cells recognizing the […] (SEQ ID NO: 20) peptide.

[6] = system: CD11c(+)CD86(+) DCs; experiment: in vivo DC recruitment to subcutaneous GM-CSF loaded polymers; design: species or system C57BL/6J mice
Text: (§1) FIGS. 4A-F are graphs and images showing data on the in vivo control of DC recruitment and programming. […] Numbers in FACS plots indicate the percentage of the cell population positive for both markers. (4D) is the percentage of total cells that were positive for the DC markers CD11c and CD86, in blank (-∘-) and GM-CSF (-•-) loaded polymers as a function of time post implantation. (4E) The total number of DCs isolated from blank (-∘-) and GM-CSF (-•-) loaded polymers as a function of time post implantation. (4F) The fractional increase in CD11c(+)CD86(+) DCs isolated from polymers at day-14 after implantation in response to doses of 1000, 3000 and 7000 ng of GM-CSF as compared to the control. Scale bar—500 μm. Values in 4A, 4D, 4E, and 4F represent mean and standard deviation (n=4 or 5); * P<0.05; ** P<0.01.
(§2) The polymer delivery vehicle presents GM-CSF in a defined spatiotemporal manner in vivo, following introduction into the tissue of interest. Exemplary vehicle quickly release approximately 60% of the bioactive GM-CSF load within the first 5 days, followed by slow and sustained release of bioactive GM-CSF over the next 10 days (FIG. 4A), to allow diffusion of the factor through the surrounding tissue and effectively recruit resident DCs. Polymers were loaded with 3 μg of GM-CSF and implanted into the dorsal subcutaneous site of C57BL/6J mice. […]

[7] = system: JAWSII DCs; experiment: GM-CSF effects on JAWSII DC recruitment, proliferation, emigration and activation in vitro; format: cell-based
Description: FIGS. 3A-C are graphs and FIG. 3D is a set of images showing data related to the concentration dependent effects of GM-CSF on DC proliferation, recruitment, activation and emigration in vitro. […] Migration counts measured at 12 hours. (3B) is the effects of GM-CSF concentration on the proliferation of JAWSII DCs. 0 (white bar), 50 (grey bar), and 500 ng/ml (black bar) of GM-CSF. […] Migration counts taken at 6 hours. (3D) are representative photomicrographs of TNF-α and LPS stimulated JAWSII DCs cultured in 5-50 or 500 ng/ml GM-CSF and stained for the activation markers MHCII and CCR7. Scale bar in (3D)—20 μm. Values in (3A-3C) represent mean and standard deviation (n=4); * P<0.05; ** P<0.01
High concentrations (>100 ng/ml) of GM-CSF, however, inhibited DC migration toward the LN-derived chemokine CCL19 (FIG. 3C).

[8] = system: mononuclear cells isolated from the bone marrow; experiment: DC induced in vitro from bone marrow cells with GM-CSF with or without TSLP, VIP or TGF-β; format: cell-based, C57BL/6 mice; settings: for CD11c+/CD86+ in total BM cells: 7 day incubation; for expression of IL-6 and IL-12: GM-CSF in the presence of factor, bacterial stimulation, compared to GM-CSF alone
Text: The surface phenotypes of CD11c+DC in the BM culture were monitored by flow cytometry and the proportionality of each phenotype is expressed as a percent (%) of the total mononuclear cells (MNC) (FIG. 5, Table 1).
The present invention provides for a material-based local application of GM-CSF with appropriate DC influencing factors that leads to tolerogenic DCs (tDCs), and subsequent enrichment of iTreg cells. Candidate biofactors include thymic stromal lymphopoietin (TSLP), vasoactive intestinal peptide (VIP), and transforming growth factor-beta (TGF-β). Screening is based on the induced DC's anti-inflammatory properties. […] Overall, these observations that the combination of GM-CSF with TSLP efficiently induces DC with an anti-inflammatory phenotype.

[9] = system: bone marrow derived murine dendritic cells; experiment: chemokinesis of bone marrow dendritic cells toward alginate gels, time-lapse imaging; format: cell-based; settings: alginate gel with GM-CSF, cells followed for 8 hours
Description: GM-CSF enhanced chemokinesis of bone marrow dendritic cells in vitro. Alginate gels with or without GM-CSF ([…]) were placed in a petri dish and surrounded with collagen containing bone marrow derived murine dendritic cells (FIG. 14A). The cells were followed for 8 hours using time-lapse imaging. The velocity of the cells was calculated from initial and final position values and is plotted in FIGS. 14B and C in μm/min. Chemotaxis toward the alginate is given as the positive x coordinate (positive x is directed radially inward). Each dot reflects the velocity of 1 cell, and each plot is representative of three experiments. The average migration speed of cells in the presence of GM-CSF was 3.1 μm/min compared to 1.1 μm/min in the absence of GM-CSF.

[10] = release profile of GM-CSF from polymer delivery vehicle; format: physicochemical; settings: within the first 5 days
Text: as §1, §2

[11] = system: B3Z T cell line; experiment: B3Z cell: DC co-culture, CPRG assay; format: cell-based; settings: antigen concentrations greater than 10 nM
Description: (§3) 15 hours later, the cells were fixed and stained with X-gal (Imgenix) according to the manufacturer's instructions. The cells were photographed at 10× magnification using a standard bright field microscope. A similar protocol was followed for the chlorophenol […] staining assay (Imgenix), except that after 15 hours, the cells were washed and lysed in a chlorophenol red-β-D-galactopyranoside staining buffer. After a 4 hour incubation at 37° C., the absorbance at 590 nm was obtained.
The cells were then lysed and treated with the β-galactosidase substrate, chlorophenol red-β-D-galactopyranoside (CPRG). After 4 hours of incubation, the absorbance at 590 nm was obtained. Staining was due to β a-galactosidase expression driven by elements of the IL-2 promoter.

[12] = system: B3Z T cell line; experiment: B3Z cell: DC co-culture, X-gal assay; format: cell-based
Description: as §3
Following a 15 hour co-culture, the cells were fixed, stained with X-gal, and imaged. The images were all obtained at 10× magnification and represent a typical distribution of cells (FIG. 29).

[13] = system: bone marrow derived dendritic cells (BMDCs); experiment: antigen presentation of […]-MPS conjugate by BMDCs (flow cytometry); format: cell-based; settings: 18 hours, versus peptide adsorbed to MPS
Text: FIG. 53 is a pair of graphs evaluating the antigen presentation of […] (SEQ ID NO: 18)-MPS conjugate. […] Percentage of BMDCs presenting the peptide was quantified using flow cytometry.

Molecule: C[C@@H]1C[C@H]2[C@@H]3CCC4=CC(=O)C=C[C@]4(C)[C@@]3(F)[C@@H](O)C[C@]2(C)[C@@]1(O)C(=O)CO [dexamethasone]
- dexamethasone concentrations with MHC II, CD80, CD86 staining reduced compared to LPS positive control ([1]; LPS treated): greater than or equal to 10^−8 M
- dexamethasone concentrations that reduced CD11c expression ([1]; immature BMDC cultures): ≥ 10^−8 M
- dexamethasone concentration at which inhibition of CD11c+ staining begins ([1]; mature DC treated with LPS 50 ng/ml): around 10^−8 M
- reduction of IL-12 elaboration from BMDC, factor [2]: ~4
- MFI CD80 [3]: 3100 ± 100^δ
- MFI CD86 [3]: 2050 ± 5^β
- MFI MHC II [3]: 540 ± 20^α
- number of cells that migrated to CCL20 relative to control [4]: approximately 1.8 fold

Molecule: CISQAVHAAHAEINEAGR (SEQ ID NO: 19) conjugated to MPS through SMCC: ovalbumin CD4 epitope conjugated to MPS through stable SMCC linker (also: conjugated to MPS via SMCC linker)
- CD4 T cell proliferation [5]: significantly higher T cell proliferation

Molecule: CISQAVHAAHAEINEAGR (SEQ ID NO: 19) conjugated to MPS through SPDP: ovalbumin CD4 epitope conjugated to MPS through reducible SPDP linker (also: conjugated to MPS via SPDP linker)
- CD4 T cell proliferation [5]: significantly higher T cell proliferation

Molecule: GM-CSF
- CD11c(+)CD86(+) DCs by FACS ([6]; 3 μg GM-CSF loaded polymers): increased not just the total cell number, but also the percentage of infiltrating cells that were DCs
- total cellular infiltration at the site ([6]; 3 μg GM-CSF, day-14, compared to control): significantly enhanced
- DC activation via TNF-α and LPS stimulation (MHCII, CCR7 expression) ([7]; high concentrations of GM-CSF): suppressed DC activation
- DC recruitment and proliferation ([7]; in vitro): enhanced DC recruitment and proliferation in a dose-dependent manner
- GM-CSF concentrations that inhibited DC migration toward CCL19 ([7]; transwell): > 100 ng/mL
- CD11c+/CD86+ in total BM cells [8]: 14.7%
- average migration speed of cells [9]: 3.1 μm/min
- bioactive GM-CSF load released [10]: approximately 60%

Molecule: SIINFEKL (Exemplary ovalbumin peptide.)
- CPRG hydrolysis versus dexamethasone-SIINFEKL groups [11]: greater CPRG hydrolysis
- X-gal staining of B3Z cells ([12]; 0.05 μM peptide): many positive cells
- X-gal staining of B3Z cells ([12]; 1.0 μM peptide): numerous positive cells

Molecule: SPDP CSIINFEKL (SEQ ID NO: 18)-MPS: ovalbumin CD8 epitope CSIINFEKL conjugated to MPS through reducible SPDP linker (also: SPDP linker to MPS)
- BMDCs presenting the peptide ([13]; 10 nM): significantly better presented
- BMDCs presenting the peptide ([13]; 100 nM): comparable levels

Molecule: TGF-β
- CD11c+/CD86+ in total BM cells [8]: 10.5%
- expression of IL-6 and IL-12 [8]: diminished expression

Molecule: TSLP: thymic stromal lymphopoietin
- expression of IL-6 and IL-12 [8]: diminished expression

Molecule: VIP: vasoactive intestinal peptide (HSDAVFTDNYTRLRKQMAVKKYLNSILN; ends and bridges not checked; UniProt P01282 125-152, looked up)
- expression of IL-6 and IL-12 [8]: diminished expression
- IL-10 production by induced DC ([8]; GM-CSF plus factor (100 ng/ml), 7 days, bacterial challenge): did not up-regulate
